Results taken from patent US12029748B2, “Synergistic composition for maintenance of healthy balance of microflora” (KIMBERLY-CLARK WORLDWIDE, INC., priority 2017, dated 2024).
Where a SMILES comes first, the peptide text is derived from it.

Legend:
[1] = tested on: L. crispatus and E. coli; experiment: Therapeutic Effect Protocol: L. crispatus / E. coli co-culture, ratio after 36 hours; format: cell-based, Lactobacillus crispatus; E. coli; conditions: for Therapeutic Efficacy Results (Lactobacillus/E. coli) 0.10%: nitrogen compound 0.10 wt/vol % with 1.0 wt/vol % α methyl-D glucoside (10:1); for Therapeutic Efficacy Results (Lactobacillus/E. coli) 0.10% / Therapeutic Efficacy Results (Lactobacillus/E. coli) 0.50% / Therapeutic Efficacy Results (Lactobacillus/E. coli) 1.00%: 36 hours anaerobic co-culture, 37° C.; for Therapeutic Efficacy Results (Lactobacillus/E. coli) 0.50%: nitrogen compound 0.50 wt/vol % with 1.0 wt/vol % α methyl-D glucoside (2:1); for Therapeutic Efficacy Results (Lactobacillus/E. coli) 1.00%: nitrogen compound 1.00 wt/vol % with 1.0 wt/vol % α methyl-D glucoside (1:1); for Therapeutic effect when ratio α methyl-D glucoside : nitrogen compound is at least about 2:1, but not at 1:1: ratio at least about 2:1, not 1:1; for Therapeutic effect of other saccharides: saccharide other than α methyl-D glucoside, by itself or with a nitrogen containing compound
Description: As used herein the term “therapeutic effect” refers to the ability of the compositions and formulations of the present invention to stimulate the growth of Lactobacillus relative E. coli measured according to the Therapeutic Effect Protocol described below. Generally, therapeutic effect is expressed as a ratio of Lactobacillus to E. coli and is desirably greater than about 2, more preferably greater than about 20 and more desirably greater than about 100.
The data in Table 1 was tested according to the Therapeutic Effect Protocol as described further herein. The nitrogen compounds were tested for their therapeutic efficacy at three different concentrations when combined with α methyl-D glucoside (1% wt/vol %). The concentrations of the nitrogen containing compounds that were tested were 1% wt/vol %, 0.5% wt/vol %, and 0.1% wt/vol %.
Colonies of L. crispatus and E. coli were prepared as follows. A colony of L. crispatus was transferred to 7 ml de Man, Rogosa & Sharpe (MRS) broth and incubated anaerobically (using BD GasPak EZ anaerobe container system with indicator) at 37° C. without shaking for 18-20 hours. A colony of E. coli was transferred to 5 ml Tryptic Soy Broth (TSB) and incubated aerobically (shaking at 100 rpm) at 37° C. for 18-20 hours.
Colonies were then inoculated as follows. Bacterial cultures were gently vortexed and 1 mL of each culture was transferred to a corresponding 2.0 mL micro-centrifuge tube and then centrifuged for two minutes at 14,500 rpm. The cultural supernatant was removed and the cell pellet was re-suspended in 1 mL of 0.95% (wt/vol %) saline. […] For L. crispatus, the pellet was re-suspended in 1 mL of 0.95% saline to achieve ˜10^7-10^8 cfu/mL. For E. coli, the pellet was re-suspended in 1 mL of 0.95% saline to achieve ˜10^8-10^9 cfu/mL.
Media were prepared as follows.
(§1) All of the ingredients in Table 2 were combined and the pH was adjusted to 6.5. […] To evaluate the effect of various nitrogen containing therapeutic agents on the growth of bacteria, the LAPT-g media, prepared as described above, was supplemented with various nitrogen containing compound therapeutic agents to a final test concentration between 0.1 and 1.0%. As initial screening measures, solubility and initial pH of each composition were checked. If a specific composition was insoluble (as detected by visual indication of precipitates or turbidity), then no further therapeutic efficacy testing was undertaken on that composition. Additionally, if the initial pH of the composition was below 5.5 (“Low”) or was above 6.5 (“High”), then no further therapeutic efficacy testing was undertaken on that composition.
Five milliliters (5 mL) of each medium was transferred to a test tube in duplicates for subsequent inoculation. A master mixture of L. crispatus and E. coli, prepared as described above, was prepared in 1,000:1 ratio. Each (5 ml) test tube was inoculated with the master mixture to give 10^5-10^6 total CFU L. crispatus and 100-1,000 total CFU E. coli per tube.
To establish a negative control, one tube was vortexed and 100 μL was removed to determine the initial cell concentrations by serial dilutions and plating (2 plates per dilution). L. crispatus is selected on MRS agar plates incubated anaerobically at 37° C. for two days. E. coli is selected on TSA plates incubated aerobically at 37° C. for one day. The co-cultures were incubated in an anaerobic container with BD GasPaks at 37° C. for 36 hours.
The effect of the α methyl-D glucoside and the nitrogen containing compound therapeutic agents on the ratio of L. crispatus to E. coli was measured 36 hours after inoculation and a final pH of the test solutions was recorded. The co-culture tube was vortexed and 100 μL was removed to determine the final cell concentrations by serial dilutions and plating (2 plates per dilution). L. crispatus is selected on MRS agar plates incubated anaerobically at 37° C. for two days.

[2] = Initial pH screening of the composition; format: physicochemical; conditions: for I pH (initial pH), 0.10%: nitrogen compound 0.10 wt/vol % with 1.0 wt/vol % α methyl-D glucoside in medium; for I pH (initial pH), 0.50%: nitrogen compound 0.50 wt/vol % with 1.0 wt/vol % α methyl-D glucoside in medium; for I pH (initial pH), 1.00%: nitrogen compound 1.00 wt/vol % with 1.0 wt/vol % α methyl-D glucoside in medium
Excerpt: Each composition in Table 1 went through initial screening measures of solubility and initial pH (“I pH”). […] When a specific concentration of a nitrogen containing compound was insoluble, the initial and final pH (“F pH”) of the combined composition was not measured and accordingly are each marked as “NM.” Additionally, initial pH of the composition was checked as a screening measure. The initial pH was marked as either Low (“L”), High (“H”), or Pass (“P”). A Low initial pH corresponds to an initial pH being less than 5.5, a High initial pH corresponds to an initial pH being greater than 6.5, and a Pass initial pH corresponds to the pH being at or between 5.5-6.5. […] As part of the Therapeutic Effect Protocol, a final pH was also measured after the compositions that were tested against the Lactobacillus and E. coli.
as §1

## CCC(N)C(=O)O (racemic) [DL-a-amino-n-butyric acid]
[1]
  Therapeutic Efficacy Results (Lactobacillus/E. coli) 0.10%: 0.34
  Therapeutic Efficacy Results (Lactobacillus/E. coli) 0.50%: 100
  Therapeutic Efficacy Results (Lactobacillus/E. coli) 1.00%: 4.44
[1]; with α methyl-D glucoside, ratio 1:1
  Therapeutic effect when ratio α methyl-D glucoside : nitrogen compound is less than 2:1 (1:1): provided a therapeutic effect
[1]; with α methyl-D glucoside
  Therapeutic effect when ratio α methyl-D glucoside : nitrogen compound is at least about 2:1, but not at 1:1: provided a therapeutic effect
[2]
  I pH (initial pH), 0.10%: P (a Pass initial pH corresponds to the pH being at or between 5.5-6.5)
  I pH (initial pH), 0.50%: P (a Pass initial pH corresponds to the pH being at or between 5.5-6.5)
  I pH (initial pH), 1.00%: P (a Pass initial pH corresponds to the pH being at or between 5.5-6.5)

## C[C@H](N)C(=O)N[C@@H](CC(=O)O)C(=O)O [Ala-Asp] (H-Ala-Asp-OH)
[1]
  Therapeutic Efficacy Results (Lactobacillus/E. coli) 0.10%: >100
[1]; with α methyl-D glucoside
  Therapeutic effect when ratio α methyl-D glucoside : nitrogen compound is at least about 2:1, but not at 1:1: provided a therapeutic effect
[2]
  I pH (initial pH), 0.10%: P (a Pass initial pH corresponds to the pH being at or between 5.5-6.5)
  I pH (initial pH), 0.50%: L (A Low initial pH corresponds to an initial pH being less than 5.5)
  I pH (initial pH), 1.00%: L (A Low initial pH corresponds to an initial pH being less than 5.5)

## C[C@H](N)C(=O)N[C@@H](CCC(=O)O)C(=O)O [Ala-Glu] (H-Ala-Glu-OH)
[1]
  Therapeutic Efficacy Results (Lactobacillus/E. coli) 0.10%: 10.67
[1]; with α methyl-D glucoside
  Therapeutic effect when ratio α methyl-D glucoside : nitrogen compound is at least about 2:1, but not at 1:1: provided a therapeutic effect
[2]
  I pH (initial pH), 0.10%: P (a Pass initial pH corresponds to the pH being at or between 5.5-6.5)
  I pH (initial pH), 0.50%: L (A Low initial pH corresponds to an initial pH being less than 5.5)
  I pH (initial pH), 1.00%: L (A Low initial pH corresponds to an initial pH being less than 5.5)

## C[C@H](N)C(=O)N[C@@H](Cc1cnc[nH]1)C(=O)O [Ala-His] (H-Ala-His-OH)
[1]
  Therapeutic Efficacy Results (Lactobacillus/E. coli) 0.10%: >133
  Therapeutic Efficacy Results (Lactobacillus/E. coli) 0.50%: 6.59E+02
[1]; with α methyl-D glucoside
  Therapeutic effect when ratio α methyl-D glucoside : nitrogen compound is at least about 2:1, but not at 1:1: provided a therapeutic effect
[1]; with α methyl-D glucoside, ratios 2:1 and 10:1, not 1:1
  Therapeutic effect at ratio 2:1 and 10:1, but not at 1:1: provided a therapeutic effect
[2]
  I pH (initial pH), 0.10%: P (a Pass initial pH corresponds to the pH being at or between 5.5-6.5)
  I pH (initial pH), 0.50%: P (a Pass initial pH corresponds to the pH being at or between 5.5-6.5)
  I pH (initial pH), 1.00%: H (a High initial pH corresponds to an initial pH being greater than 6.5)

## N.O.O.O.O.O=P([O-])(O)O.[Na+] [Ammonium Sodium Phosphate]
[1]
  Therapeutic Efficacy Results (Lactobacillus/E. coli) 0.10%: 0.25

## Nc1ccn([C@@H]2O[C@H](CO)[C@@H](O)[C@H]2O)c(=O)n1 [Cytidine]
[1]
  Therapeutic Efficacy Results (Lactobacillus/E. coli) 0.10%: >103
  Therapeutic Efficacy Results (Lactobacillus/E. coli) 0.50%: 3.85E+03
  Therapeutic Efficacy Results (Lactobacillus/E. coli) 1.00%: 3.09

## N=C(N)NCCC[C@@H](N)C(=O)O [D-Arginine]
[1]
  Therapeutic Efficacy Results (Lactobacillus/E. coli) 0.10%: 0.35

## N[C@H](CO)C(=O)O [D-Serine]
[1]
  Therapeutic Efficacy Results (Lactobacillus/E. coli) 0.10%: 0.06
  Therapeutic Efficacy Results (Lactobacillus/E. coli) 0.50%: <1.00
  Therapeutic Efficacy Results (Lactobacillus/E. coli) 1.00%: 0.03

## O=C[C@@H](O)[C@H](O)[C@H](O)CO [D-arabinose]
[1]
  Therapeutic effect of other saccharides: not able to provide a therapeutic effect

## NCCCC(=O)O [DL-gamma-amino-n-butyric acid]
[1]
  Therapeutic Efficacy Results (Lactobacillus/E. coli) 0.10%: 0.836
  Therapeutic Efficacy Results (Lactobacillus/E. coli) 0.50%: 246.6
  Therapeutic Efficacy Results (Lactobacillus/E. coli) 1.00%: 1.86

## NCC(=O)O [Glycine]
[1]
  Therapeutic Efficacy Results (Lactobacillus/E. coli) 0.10%: 0.56
  Therapeutic Efficacy Results (Lactobacillus/E. coli) 0.50%: 20.5
  Therapeutic Efficacy Results (Lactobacillus/E. coli) 1.00%: 950

## NCCc1c[nH]cn1 [Histamine]
[2]
  I pH (initial pH), 0.10%: H (a High initial pH corresponds to an initial pH being greater than 6.5)
  I pH (initial pH), 0.50%: H (a High initial pH corresponds to an initial pH being greater than 6.5)
  I pH (initial pH), 1.00%: H (a High initial pH corresponds to an initial pH being greater than 6.5)

## N=C(N)NCCC[C@H](N)C(=O)O [L-Arginine]
[1]
  Therapeutic Efficacy Results (Lactobacillus/E. coli) 0.10%: 0.58

## N[C@@H](CC(=O)O)C(=O)O [L-Aspartic Acid]
[1]
  Therapeutic Efficacy Results (Lactobacillus/E. coli) 0.10%: 1.36

## N[C@@H](CCC(=O)O)C(=O)O [L-Glutamic Acid]
[1]
  Therapeutic Efficacy Results (Lactobacillus/E. coli) 0.10%: 2.81

## O=C(O)[C@@H]1CCCN1 [L-Proline]
[1]
  Therapeutic Efficacy Results (Lactobacillus/E. coli) 0.10%: 1.88
  Therapeutic Efficacy Results (Lactobacillus/E. coli) 0.50%: 0.55
  Therapeutic Efficacy Results (Lactobacillus/E. coli) 1.00%: 1.25

## CCCCCN [N-Amylamine]
[2]
  I pH (initial pH), 0.10%: H (a High initial pH corresponds to an initial pH being greater than 6.5)
  I pH (initial pH), 0.50%: H (a High initial pH corresponds to an initial pH being greater than 6.5)
  I pH (initial pH), 1.00%: H (a High initial pH corresponds to an initial pH being greater than 6.5)

## O=C(O)CC[C@@H](C(=O)O)N1C(=O)c2ccccc2C1=O [n-phthaloyl-l-glutamic acid]
[2]
  I pH (initial pH), 0.10%: L (A Low initial pH corresponds to an initial pH being less than 5.5)
  I pH (initial pH), 0.50%: L (A Low initial pH corresponds to an initial pH being less than 5.5)
  I pH (initial pH), 1.00%: L (A Low initial pH corresponds to an initial pH being less than 5.5)

## OC[C@H]1O[C@H](OC[C@H]2O[C@H](OC[C@H]3O[C@H](O[C@]4(CO)O[C@H](CO)[C@@H](O)[C@@H]4O)[C@H](O)[C@@H](O)[C@@H]3O)[C@H](O)[C@@H](O)[C@H]2O)[C@H](O)[C@@H](O)[C@H]1O [stachyose]
[1]
  Therapeutic effect of other saccharides: not able to provide a therapeutic effect

## Ammonium Citrate
[1]
  Therapeutic Efficacy Results (Lactobacillus/E. coli) 0.10%: >260
  Therapeutic Efficacy Results (Lactobacillus/E. coli) 0.50%: 4.93E−04
  Therapeutic Efficacy Results (Lactobacillus/E. coli) 1.00%: 3.15E−08
